Values joined by “and” are separate entries in the source; they are usually repeats but may differ in a detail not shown here. Equal entries are not always repeated. Where two headings read alike, the source gives them in different places.

Consider two compounds from patent US20190364896A1, “SYNERGISTIC WEED CONTROL FROM APPLICATIONS OF PYRIDINE CARBOXYLIC ACID HERBICIDES AND ALS INHIBITORS” (Dow AgroSciences LLC, priority 2014, published 2019).

What all share (experiment): Postemergence herbicidal activity, greenhouse trial (visual injury 0-100%)
Common to all, as to format: in vivo

Assay [1] relates to nutsedge (Cyperus esculentus, CYPES). A digest of the protocol: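 Greenhouse-grown plants at the second to third true leaf stage were sprayed with two-way mixtures in 1.5% v/v Agri-dex crop oil concentrate at 187 L/ha; rates in g ae/ha for component (a) and g ai/ha for component (b). Injury scored visually 0–100% versus solvent-blank controls after 20–22 d, with expected mixture effects from Colby's equation.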

Assay [2] concerns sunflower (Helianthus annuus, HELAN).
In assay [3] the test system is velvetleaf (Abutilon theophrasti, ABUTH).
Assay [4] deals with common lambsquarters (Chenopodium album L., CHEAL). The settings on record: Chenopodium album, post-emergence, read-out: % visual injury Obs. In short, it runs like this:
(§1)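 Read-out is a visual 0–100% injury score against solvent-blank-sprayed controls, taken 20-22 d after treatment; expected mixture effects came from Colby's equation. Two-way combinations in 1.5% v/v crop oil concentrate were sprayed at 187 L/ha onto plants at the second or third true leaf stage.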

Assay [5] relates to barnyardgrass (Echinochloa crus-galli, ECHCG). The settings on record: Echinochloa crus-galli, post-emergence, read-out: % visual injury Obs. A digest of the protocol:
as §1

Assay [6] deals with wild oat (Avena fatua, AVEFA). In short, it runs like this: as §1
Assay [7] concerns ivyleaf morning-glory (Ipomoea hederacea, IPOHE). The settings on record: Ipomoea hederacea, post-emergence, read-out: % visual injury Obs. A digest of the protocol:
as §1

In assay [8] the test system is chickweed (Stellaria media, STEME). The conditions noted are these: Stellaria media, post-emergence, read-out: % visual injury Obs. In short, it runs like this:
as §1

Regarding `Nc1c(F)c(-c2ccc3cc[nH]c3c2F)nc(C(=O)O)c1Cl` [Compound 1], the “% visual injury Obs” value was 10% in assay [1] (CYPES, Compound 1 5 g ae/ha); 90% in assay [2] (5 g ae/ha); 90% in assay [2] (10 g ae/ha); 70% in assay [2] (HELAN, Compound 1 5 g ae/ha); 50% and 70% in assay [3] (5 g ae/ha); 60% in assay [3] (10 g ae/ha). The “% visual injury Obs” value in assay [3] (ABUTH, Compound 1 5 g ae/ha) worked out at 70%; in assay [6] (5 g ae/ha), 0%; in assay [6] (10 g ae/ha) it was 0%. Further, the pest or weed control at 5 g/ha was determined as 10% in assay [1] (Cyperus, post-emergence, 5 g ae/ha, read-out: % visual injury Obs); 80% in assay [4] (5 g ae/ha); 90% in assay [4] (CHEAL, Compound 1 5 g ae/ha); 50% in assay [5] (ECHCG, Compound 1 5 g ae/ha); 50% in assay [8] (5 g ae/ha); 70% in assay [8] (STEME, Compound 1 5 g ae/ha). The pest or weed control at 10 g/ha was 100% in assay [4] (10 g ae/ha); 100% in assay [4] (CHEAL, Compound 1 10 g ae/ha); 60% in assay [5] (10 g ae/ha); 10% in assay [7] (10 g ae/ha); 10% in assay [7] (IPOHE, Compound 1 10 g ae/ha); 70% in assay [8] (10 g ae/ha). Besides, in assay [8] (STEME, Compound 1 10 g ae/ha), the pest or weed control at 10 g/ha was 70%.

Consider `CCCOc1nn(C(=O)NS(=O)(=O)c2ccccc2C(=O)OC)c(=O)n1C` [Propoxycarbazone, propoxycarbazone], for which the pest or weed control at […] was found to be 75% in assay [1] (Cyperus, post-emergence, 7.5 g ai/ha, read-out: % visual injury Obs); 30% in assay [4] (7.5 g ai/ha); 95% in assay [5] (7.5 g ai/ha); 95% in assay [7] (7.5 g ai/ha); 50% in assay [8] (7.5 g ai/ha). In addition, the “% visual injury Obs” value in assay [2] (7.5 g ai/ha) is listed as 85%; in assay [3] (7.5 g ai/ha), 50%; in assay [6] (7.5 g ai/ha) it was 85%.
